In publication PMC6199744, “Development of Chemical Proteomics for the Folateome and Analysis of the Kinetoplastid Folateome” (ACS Infectious Diseases, 2018):

Test system: L. major lysate proteins
Assay: Multitargeted bead mixture chemoproteomics, single concentration competition, proteome-wide
Type: binding

Compound: NCCCNc1ccc(C(=O)NC(CCC(=O)O)C(=O)O)cc1 (stereo not drawn) [compound 7]
- fold change (protein LMJF.35.0420 40S RIBOSOMAL PROTEIN S3A, PUTATIVE, vehicle control = 1): 1.04
- fold change relative to vehicle control (protein LMJF.35.1220, SHORT CHAIN DEHYDROGENASE, PUTATIVE): 1.22
- fold change relative to vehicle control (protein LMJF.35.1380, MIT[…], BETA SUBUNIT, PUTATIVE): 1.09
- fold change vs vehicle control (protein LMJF.35.1830 HYPOTHETICAL PROTEIN, CONSERVED): 0.96
- fold change vs vehicle control (protein LMJF.35.3340 6-phosphogluconate dehydrogenase): 1.02
- fold change (protein LMJF.35.3700 GIM5A PROTEIN, PUTATIVE,GLYCOSOMAL MEMBRANE PROTEIN, vehicle control = 1): 0.89
- fold change vs vehicle control (protein LMJF.35.3760 60S RIBOSOMAL PROTEIN L27A/L29, PUTATIVE): 0.84
- fold change relative to vehicle control (protein LMJF.35.3840, […] 2 SUBUNIT, PUTATIVE): 1.34
- fold change vs vehicle control (protein LMJF.35.3860 T-COMPLEX PROTEIN 1, ETA SUBUNIT, PUTATIVE): 0.92
- fold change (protein LMJF.35.4420 MIT[…] TRANSPORTER, PUTATIVE, vehicle control = 1): 1.06
- fold change relative to vehicle control (protein LMJF.35.4880, HYPOTHETICAL PROTEIN, CONSERVED (TPR repeat, putative)): 0.98
- fold change relative to vehicle control (protein LMJF.35.5330, ISOPENTENYL-D[…]-ISOMERASE, PUTATIVE): 1.02
- fold change relative to vehicle control (protein LMJF.36.0070, STRESS-INDUCIBLE PROTEIN STI1 HOMOLOG): 1.21
- fold change (protein LMJF.36.0480 HY[…], CONSERVED, vehicle control = 1): 1.01
- fold change vs vehicle control (protein LMJF.36.0620 HY[…], CONSERVED): 1.07
- fold change vs vehicle control (protein LMJF.36.0930 40S RIBOSOMAL PROTEIN S18, PUTATIVE): 1.09
- fold change vs vehicle control (protein LMJF.36.0990 40S RIBOSOMAL PROTEIN S10, PUTATIVE): 1.03
- fold change (protein LMJF.36.1140 SHORT CHAIN 3-HYDROXYACYL-COA DEHYDROGENASE, PUTATIVE, vehicle control = 1): 0.85
- fold change relative to vehicle control (protein LMJF.36.1260, FRUCTOSE-1,6-BI[…]): 1.01
- fold change (protein LMJF.36.1340 N-ACETYLTRANSFERASE SUBUNIT NAT1, PUTATIVE, vehicle control = 1): 0.79
- fold change vs vehicle control (protein LMJF.36.1650 PROTEASOME BETA 5 SUBUNIT, PUTATIVE): 0.99
- fold change relative to vehicle control (protein LMJF.36.2380, STEROL 24-C-METHYLTRANSFERASE, PUTATIVE): 0.97
- fold change vs vehicle control (protein LMJF.36.2950 SUCCINYL-COA LIGASE GDP-FORMING] BETA-CHAIN, PUTATIVE): 1
- fold change vs vehicle control (protein LMJF.36.3210 14-3-3 PROTEIN-LIKE PROTEIN): 0.87
- fold change vs vehicle control (protein LMJF.36.3410 SHORT CHAIN DEHYDROGENASE-LIKE PROTEIN): 1.26
- fold change (protein LMJF.36.3460 HYPOTHETICAL PROTEIN, CONSERVED (NIPSNAP, putative), vehicle control = 1): 0.88
- fold change (protein LMJF.36.3580 HY[…], CONSERVED (Protein of unknown function (DUF2009), putative), vehicle control = 1): 1.12
- fold change (protein LMJF.36.3750 40S RIBOSOMAL PROTEIN S27-1, PUTATIVE, vehicle control = 1): 1.02
- fold change vs vehicle control (protein LMJF.36.5010 40S RIBOSOMAL PROTEIN SA, PUTATIVE): 1.12
- fold change vs vehicle control (protein LMJF.36.5130 HY[…], CONSERVED): 1.42
- fold change vs vehicle control (protein LMJF.36.5150 HYPOTHETICAL PROTEIN, CONSERVED): 0.97
- fold change relative to vehicle control (protein LMJF.36.5380, NADH DEHYDROGENASE, PUTATIVE): 1.14
- fold change vs vehicle control (protein LMJF.36.5390 PHOSPHORIBOSYLPYROPHOSPHATE SYNTHETASE, PUTATIVE): 0.89
- fold change vs vehicle control (protein LMJF.36.5620 ISOLEUCYL-TRNA SYNTHETASE, PUTATIVE): 1
- fold change (protein LMJF.36.6430 PROTEIN TRANSPORT PROTEIN SEC23-LIKE PROTEIN, vehicle control = 1): 0.89
- fold change vs vehicle control (protein LMJF.36.6760 HY[…], CONSERVED): 1.01
- fold change relative to vehicle control (protein LMJF.[…], MIT[…] BETA SUBUNIT, PUTATIVE): 0.91
- fold change relative to vehicle control (protein LMJF.[…], POLY(A) EXPORT PROTEIN, PUTATIVE): 1.14
- fold change (vs vehicle control, protein LINJ.20.0630 CYTIDINE TR[…], PUTATIVE,CTP SYNTHASE, PUTATIVE): 1.04
- fold change (vs vehicle control, protein LINJ.20.1390 COATOMER BETA SUBUNIT, PUTATIVE): 0.87
- fold change (vs vehicle control, protein LMJF.05.1140 VACUOLAR ATPASE SUBUNIT-LIKE PROTEIN): 0.93
- fold change (vs vehicle control, protein LMJF.07.1090 DELTA-5 FATTY ACID DESATURASE): 0.92
- fold change (vs vehicle control, protein LMJF.09.0220 HYPOTHETICAL PROTEIN, CONSERVED): 0.78
- fold change (vs vehicle control, protein LMJF.11.1030 HYPOTHETICAL PROTEIN, CONSERVED): 0.93
- fold change (vs vehicle control, protein LMJF.14.0640 FATTY ACID ELONGASE, PUTATIVE): 0.8
- fold change (vs vehicle control, protein LMJF.14.0705 FATTY ACID ELONGASE, PUTATIVE): 1.17
- fold change (vs vehicle control, protein LMJF.14.1120 KINESIN K39, PUTATIVE): 0.6
- fold change (vs vehicle control, protein LMJF.16.1610 PROHIBITIN): 1.07
- fold change (vs vehicle control, protein LMJF.17.0010 HYPOTHETICAL PROTEIN, CONSERVED): 0.87
- fold change (vs vehicle control, protein LMJF.18.1130 RAS-RELATED PROTEIN RAB-5, PUTATIVE): 0.68
- fold change (vs vehicle control, protein LMJF.19.1420 CYSTEINE PEPTIDASE A (CPA)): 0.9
- fold change (vs vehicle control, protein LMJF.21.0280 HY[…], CONSERVED): 0.94
- fold change (vs vehicle control, protein LMJF.22.1560 40S RIBOSOMAL PROTEIN L14, PUTATIVE): 0.7
- fold change (vs vehicle control, protein LMJF.23.1220 T-COMPLEX PROTEIN 1, GAMMA SUBUNIT, PUTATIVE): 1.02
- fold change (vs vehicle control, protein LMJF.24.0370 ASPARTATE AMINOTRANSFERASE, PUTATIVE): 1.01
- fold change (vs vehicle control, protein LMJF.25.1770 ENOYL-COA REDUCTASE, PUTATIVE): 1.02
- fold change (vs vehicle control, protein LMJF.26.0170 60S RIBOSOMAL PROTEIN L7, PUTATIVE): 0.9
- fold change (vs vehicle control, protein LMJF.26.1550 TRI[…] ALPHA SUBUNIT, MIT[…]-LIKE PROTEIN): 1.06
- fold change (vs vehicle control, protein LMJF.26.1610 PROLINE OXIDASE, MITOCHONDRIAL PRECURSOR-LIKE PROTEIN): 0.83
- fold change (vs vehicle control, protein LMJF.28.1950 X-PRO, DIPEPTIDYL-PEPTIDASE,SERINE PEPTIDASE, CLAN SC, FAMILY S15, PUTATIVE): 1.14
- fold change (vs vehicle control, protein LMJF.31.1070 BIOTIN/LIPOATE PROTEIN LIGASE-LIKE PROTEIN): 0.87
- fold change (vs vehicle control, protein LMJF.32.1370 HYPOTHETICAL PROTEIN, CONSERVED): 0.91
- fold change (vs vehicle control, protein LMJF.34.0490 IMPORTIN BETA-1 SUBUNIT, PUTATIVE): 0.78
- fold change (vs vehicle control, protein LMJF.34.4060 UBIQUITIN HYDROLASE, PUTATIVE,CYSTEINE PEPTIDASE, CLAN CA, FAMILY C19, PUTATIVE): 0.91
- fold change (vs vehicle control, protein LMJF.36.1600 PROTEASOME ALPHA 1 SUBUNIT, PUTATIVE): 0.95
- fold change (vs vehicle control, protein LMJF.[…] RIBOSOMAL PROTEIN S7, PUTATIVE): 1
